Source: patent US20040072907A1, “Antipicornaviral compounds, compositions containing them, and methods for their use” (priority 1997, published 2004)
Read-outs that look alike come from different tables or passages of the source.

Key:
[1] = target: T1, Recombinant Rhinovirus 3C protease serotype 14 (Human rhinovirus 14, UniProt P03303); assay: biochemical; settings: RVP serotype-14, progress curves, enzyme start experiments
T1 construct: Recombinant Rhinovirus 3C proteases from serotypes 14, 16, and 2; made in house
Experimental: Stock solutions (50 mM, in DMSO) of various compounds were prepared; dilutions were in the same solvent. […] Assays contained 2% DMSO, 50 mM tris pH 7.6, 1 mM EDTA, a compound at the indicated concentrations, approximately 1 μM substrate, and 50-100 nM protease. […] The kobs/I values were obtained from reactions initiated by addition of enzyme rather than substrate. RVP activity is measured in the fluorescence resonance energy transfer assay. […] In the uncleavaed peptide, the EDANS fluorescence was quenched by the proximal DABCYL moiety. When the peptide was cleaved, the quenching was relieved, and activity was measured as an increase in fluorescence signal.
The data in the column designated kobs/I was measured from progress curves enzyme start experiments.

[2] = system: HRV serotype-14; assay: Antirhinoviral HI-HeLa cell culture assay (XTT cell protection), HRV-14; type: cell-based, human rhinovirus
Experimental: (§1) In the Cell Protection Assay, the ability of compounds to protect cells against HRV infection was measured by the XTT dye reduction method. This method is described in Weislow, O. S., Kiser, R., Fine, D. L., Bader, J., Shoemaker, R. H., Boyd, M. R., J. Natl. Cancer Inst. 1989, 81, 577-586, the disclosure of which is incorporated herein by reference.
(§2) Infected or mock-infected cells were resuspended at 8×10^5 cells per mL and incubated with appropriate concentrations of compounds of formula I. Two days later, XTT/PMS was added to test plates, and the amount of formazan produced was quantified spectrophotometrically at 450/650 nm. […] The therapeutic index (TI) was calculated by dividing the CC50 by the EC50.
(§3) All strains of human rhinovirus (HRV) for use in this assay were purchased from American Type Culture Collection (ATCC) except for HRV serotype-14, which was produced from the infectious cDNA clone constructed and supplied to Applicants by Dr. Robert Rueckert at the Institute for Molecular Virology, University of Wisconsin, Madison, Wis. HRV stocks were propagated, and viral assays were performed in HI-HeLa cells (ATCC). Cells were grown in Minimal Essential Medium, available from Life Technologies, with 10% fetal bovine serum.
(§4) The compounds were tested against control compounds WIN 51711, WIN 52084, and WIN 54954, all obtained from Sterling-Winthrop Pharmaceuticals, and control compound Pirodavir, obtained from Janssen Pharmaceuticals. Antiviral data obtained for the test compounds are shown in Table 2 where all data are for HRV serotype-14 unless otherwise noted in parentheses.

[3] = system: HRV serotype 2; assay: Antirhinoviral HI-HeLa cell culture assay (XTT cell protection), HRV-2; type: cell-based, human rhinovirus; settings: HRV serotype 2, HI-HeLa cells
Experimental: as §1, §2, §3, §4

[4] = system: HRV serotype 10; assay: Antirhinoviral HI-HeLa cell culture assay (XTT cell protection), HRV-10; type: cell-based, human rhinovirus; settings: HRV serotype 10, HI-HeLa cells
Experimental: as §1, §2, §3, §4

[5] = system: HRV serotype 1A; assay: Antirhinoviral HI-HeLa cell culture assay (XTT cell protection), HRV-1A; type: cell-based, human rhinovirus; settings: HI-HeLa cells
Experimental: as §1, §2, §3, §4

[6] = system: HI-HeLa cells; assay: Cytotoxicity in mock-infected HI-HeLa cells (XTT, antirhinoviral assay); type: cell-based; settings: mock-infected HI-HeLa cells, read-out: CC50
Experimental: as §1, §2
(§5) HRV stocks were propagated, and viral assays were performed in HI-HeLa cells (ATCC). Cells were grown in Minimal Essential Medium, available from Life Technologies, with 10% fetal bovine serum.

[7] = system: HRV serotype 89; assay: Antirhinoviral HI-HeLa cell culture assay (XTT cell protection), HRV-89; type: cell-based, human rhinovirus; settings: HRV serotype 89, HI-HeLa cells
Experimental: as §1, §2, §3, §4

[8] = system: HRV serotype 16; assay: Antirhinoviral HI-HeLa cell culture assay (XTT cell protection), HRV-16; type: cell-based, human rhinovirus; settings: HRV serotype 16, HI-HeLa cells
Experimental: as §1, §2, §3, §4

[9] = Cytotoxicity in mock-infected HI-HeLa cells (XTT, antirhinoviral assay); type: cell-based; settings: human; mock-infected HI-HeLa cells; line for HRV serotype-14
Experimental: as §1, §2, §5

[10] = system: Coxsackie strain A-21 (CVA-21); assay: Anticoxsackieviral HI-HeLa cell culture assay (XTT cell protection); type: cell-based; settings: CVA-21, HI-HeLa cells, m.o.i. 0.05, one day
Experimental: (§6) The Coxsackie strain A-21 (CVA-21) was purchased from American Type Culture Collection (ATCC). Virus stocks were propagated, and antiviral assays were performed in HI-HeLa cells (ATCC). Cells were grown in Minimal Essential Medium with 10% fetal bovine serum.
The ability of compounds to protect cells against CVA-21 infection was measured by the XTT dye reduction method. This method is described in Weislow, O. S., Kiser, R., Fine, D. L., Bader, J., Shoemaker, R. H., Boyd, M. R., J. Natl. Cancer Inst. 1989, 81, 577-586, the disclosure of which is incorporated herein by reference. […] Infected or uninfected cells were resuspended at 4×10^4 cells per mL and incubated with appropriate concentrations of drug. One day later, XTT/PMS was added to test plates, and the amount of formazan produced was quantified spectrophotometrically at 450/650 nm. […] The therapeutic index (TI) was calculated by dividing the CC50 by the EC50.
The compounds were tested against control compound WIN 54954, obtained from Sterling-Winthrop Pharmaceuticals, and control compound Pirodavir, obtained from Janssen Pharmaceuticals.

[11] = Cytotoxicity in uninfected HI-HeLa cells (XTT, anticoxsackieviral assay); type: cell-based; settings: human, one day
Experimental: as §6
(§7) The ability of compounds to protect cells against CVA-21 infection was measured by the XTT dye reduction method. This method is described in Weislow, O. S., Kiser, R., Fine, D. L., Bader, J., Shoemaker, R. H., Boyd, M. R., J. Natl. Cancer Inst. 1989, 81, 577-586, the disclosure of which is incorporated herein by reference. HI-HeLa cells were infected with CVA-21 at a multiplicity of infection (m.o.i.) of 0.05 (CVA-21) or mock-infected with medium only. Infected or uninfected cells were resuspended at 4×10^4 cells per mL and incubated with appropriate concentrations of drug. One day later, XTT/PMS was added to test plates, and the amount of formazan produced was quantified spectrophotometrically at 450/650 nm. […] The therapeutic index (TI) was calculated by dividing the CC50 by the EC50.

[12] = system: HI-HeLa cells; assay: as above; type: cell-based; settings: one day
Experimental: as §6, §7

[13] = system: HRV serotype 39; assay: Antirhinoviral HI-HeLa cell culture assay (XTT cell protection), HRV-39; type: cell-based, human rhinovirus; settings: HRV serotype 39, HI-HeLa cells
Experimental: as §1, §2, §3, §4

[14] = HRV serotype-14, HI-HeLa cells, m.o.i. 0.13, two days, XTT, read-out: EC50

T1 sequence (P03303 1538-1719): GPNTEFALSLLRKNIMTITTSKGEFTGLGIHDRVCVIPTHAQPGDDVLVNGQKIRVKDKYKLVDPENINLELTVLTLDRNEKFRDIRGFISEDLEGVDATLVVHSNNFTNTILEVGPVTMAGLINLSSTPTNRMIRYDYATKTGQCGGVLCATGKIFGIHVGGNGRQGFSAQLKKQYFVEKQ

Compound | EC50 [2, 14] | EC50 [3] | EC50 [4] | EC50 [5] | CC50 ([6]; line for HRV serotype 1A) | CC50 ([6]; line for HRV serotype 2) | CC50 ([6]; line for HRV serotype 10) | CC50 ([6]; line for HRV serotype-14) | EC50 [7] | EC50 [8] | CC50 ([6]; line for HRV serotype 39) | CC50 ([6]; line for HRV serotype 89) | EC50 [13] | CC50 ([6]; line for HRV serotype 16) | other results
CCOC(=O)/C=C/C(CCC(N)=O)NC(=O)C(CC(=O)C(CC(C)C)NC1CCCC1)Cc1ccc(F)cc1 (centres unmarked) [Compound 19] | 280 nM | 710 nM | 1600 nM | 600 nM | > 3000 nM | > 3000 nM | > 3000 nM | > 3000 nM | – | – | – | – | – | – | kobs/I [1]: 67,200 M^−1sec^−1
Ethyl-3-(CBZ-L-LeuΨ[COCH2]-D/L-Phe-L-Gln)-E-Propenoate [Compound 1 + 9 (˜1:1)] | 1300 nM | 2000 nM | 4100 nM | – | – | – | – | – | 5100 nM | 2800 nM | – | – | – | – | –
CCOC(=O)c1ccc(OCCC2CCN(c3ccc(C)nn3)CC2)cc1 [Pirodavir, reference compound] | – | – | – | – | – | – | – | – | – | – | – | – | – | – | EC50 ([2]; Human rhinovirus sp., 48 h, HRV serotype-14, HI-HeLa cells, m.o.i. 0.13, two days, XTT, read-out: EC50): 30 nM; CC50 at 2 days [9]: > 10000 nM; EC50 ([10]; 24 h): > 100000 nM; CC50 at 1 day [11]: > 100000 nM
CC(C)CC(NC(=O)SCc1ccccc1)C(=O)CC(Cc1ccccc1)C(=O)NC(C=CC(=O)N1CCc2ccccc21)CCC(N)=O [Compound 3, (2,3-Dihydroindole)-3-(BnSCO-L-LeuΨ[COCH2]-L-Phe-L-Gln)-E-Propenamide] | – | – | – | – | – | – | – | – | – | – | – | – | – | – | kinact/KI ([1]; read-out: kobs/I): 29200 M⁻¹ s⁻¹; EC50 ([2]; Human rhinovirus sp., 48 h): 1900 nM; CC50 at 2 days [9]: 50100 nM
Cc1cc(CCCCCOc2c(Cl)cc(C3=NCCO3)cc2Cl)on1 [WIN 54954, reference compound] | 2130 nM | – | – | – | – | – | – | > 63000 nM | – | – | – | – | – | – | EC50 [10]: > 100000 nM; CC50 [12]: > 100000 nM
CCOC(=O)/C=C/C(CCC(N)=O)NC(=O)C(CC(=O)C(NC(=O)SC1CCCC1)C(C)C)Cc1ccccc1 [Compound 7, Ethyl-3-(CyPentylSCO-L-ValΨ[COCH2]-L-Phe-L-Gln)-E-Propenoate] | – | – | – | – | – | > 10000 nM | > 10000 nM | – | – | – | > 10000 nM | > 10000 nM | – | – | CC50 [12]: > 10000 nM
CCOC(=O)/C=C/C(CCC(N)=O)NC(=O)C(CC(=O)C(NC(=O)OC1CCCC1)C(C)C)Cc1ccc(C)cc1 (centres unmarked) [Compound 20] | 42 nM | 560 nM | – | 530 nM | > 3000 nM | > 3000 nM | > 3000 nM | > 3000 nM | 470 nM | 150 nM | > 3000 nM | > 3000 nM | 1200 nM | > 3000 nM | –
CCOC(=O)/C=C/C(CCC(N)=O)NC(=O)C(CC(=O)C(CC(C)C)NC(=O)SC1CCCC1)Cc1ccc(C)cc1 [Compound 21, Ethyl-3-(CyPentylSCO-L-LeuΨ[COCH2]-L-(p-CH3)Phe-L-Gln)-E-Propenoate] | – | 1000 nM | 1400 nM | 560 nM | > 10000 nM | > 10000 nM | > 10000 nM | > 10000 nM | – | – | – | – | – | – | –
CCOC(=O)/C=C/C(CCC(N)=O)NC(=O)C(CC(=O)C(NC(=O)SC1CCCC1)C(C)(C)C)Cc1ccccc1 [Compound 22, Ethyl-3-(CyPentylSCO-L-tert-LeuΨ[COCH2]-L-Phe-L-Gln)-E-Propenoate] | 50 nM | – | – | 430 nM | > 32000 nM | > 32000 nM | > 32000 nM | > 32000 nM | – | 400 nM | > 32000 nM | > 32000 nM | 400 nM | > 32000 nM | –
CCOC(=O)/C=C/[C@H](CCC(N)=O)NC(=O)[C@@H](CC(=O)[C@@H](NC(=O)OC1CCCC1)C(C)C)Cc1ccc(F)cc1 [Compound 25, Ethyl-3-(CyPentylOCO-L-ValΨ[COCH2]-L-(p-F)Phe-L-Gln)-E-Propenoate] | 140 nM | – | 1700 nM | 900 nM | > 3000 nM | > 3000 nM | > 3000 nM | > 3000 nM | 320 nM | 710 nM | > 3000 nM | > 3000 nM | 560 nM | > 3000 nM | –
